One assay has as its target T1, PARP-1 (Homo sapiens, UniProt P09874).
T1 construct: purchased Enzo Life Sciences GmbH, Lorrach, Germany
Description: PARP-1 autoparsylation assay (HTRF). The assay is classed as biochemical. Conditions: His-tagged Parp-1, human recombinant. The text has this:
Description of the PARP1 Assay
Biochemical Activity Testing of PARP-1: Autoparsylation Assay
The autoparsylation assay is run in two steps: the enzymatic reaction in which His-tagged Parp-1 transfers biotinylated ADP-ribose/ADP-ribose to itself from biotinylated NAD/NAD as co-substrate and the detection reaction where a time resolved FRET between cryptate labelled anti-His antibody bound to the His tag of the enzyme and Xlent® labelled-streptavidin bound the biotin-parsylation residue is analysed. The autoparsylation activity is detectable directly via the increase in HTRF signal.
The autoparsylation assay is performed as 384-well HTRF® (Cisbio, Codolet, France) assay format in Greiner low volume nb 384-well microtiter plates. 35 nM His-tagged Parp-1 (human, recombinant, Enzo Life Sciences GmbH, Lorrach, Germany) and a mixture of 125 nM bio-NAD (Biolog, Life science Inst., Bremen, Germany) and 800 nM NAD as co-substrate are incubated in a total volume of 6 μl (100 mM Tris/HCl, 4 mM Mg-chloride, 0.01% IGEPAL® CA630, 1 mM DTT , 0.5% DMSO, pH 8, 13 ng/μl activated DNA (BPS Bioscience, San Diego, US)) in the absence or presence of the test compound (10 dilution concentrations) for 150 min at 23° C. The reaction is stopped by the addition of 4 μl of the Stop/detection solution (70 nM SA-Xlent® (Cisbio, Codolet, France), 2.5 nM Anti-His-K® (Eu-labelled anti-His, Cisbio, Codolet, France) in 50 mM HEPES, 400 mM KF, 0.1% BSA, 20 mM EDTA, pH 7.0). After 1 h incubation at room temperature the HTRF iss measured with an Envision multimode reader (Perkin Elmer LAS Germany GmbH) at excitation wavelength 340 nm (laser mode) and emission wavelengths 615 nm and 665 nm. The ratio of the emission signals is determined. The full value used is the inhibitor-free reaction. The pharmacological zero value used is Olaparib (LClabs, Woburn, US) in a final concentration of 1 μM. The inhibitory values (IC50) are determined using either the program Symyx Assay Explorer® or Condosseo® from GeneData.
On the technique in general: TR-FRET usually uses a lanthanide donor and a delayed reading to cut background.

Another assay deals with T2, TNKS1 (Homo sapiens, UniProt O95271).
T2 construct: GST-tagged Tnks-1 (1023-1327 aa, prepared in-house); made in house
The experiment in a line: TNKS1 activity ELISA (autoparsylation assay). Type of assay: biochemical. The following applies: GST-tagged Tnks-1 (1023-1327 aa), luminescence. On the procedure:
Description of the TNKS1 and TNKS2 ELISA Assay
Biochemical activity testing of TNKS 1 and 2: activity ELISA (Autoparsylation assay)
For analysis of autoparsylation activity of TNKS 1 and 2 an activity ELISA iss performed: In the first step GST tagged TNKS is captured on a Glutathione coated plate. Then the activity assay with biotinylated NAD is performed in the absence/presence of the compounds. During the enzymatic reaction GST tagged TNKS transfers biotinylated ADP-ribose to itself from biotinylated NAD as co-substrate. For the detection streptavidin-HRP conjugate is added that binds to the biotinylated TNKS and is thereby captured to the plates. The amount of biotinylated resp. autoparsylated TNKS is detected with a luminescence substrate for HRP. The level of the luminescence signal correlats directly with the amount of autoparsylated TNKS and therefore with activity of TNKS.
The acitivity ELISA is performed in 384 well Glutathione coated microtiter plates (Express capture Glutathione coated plate, Biocat, Heidelberg, Germany). The plates are pre-equilibrated with PBS. Then the plates are incubated with 50 μl 20 ng/well GST-tagged Tnks-1 (1023-1327 aa, prepared in-house), respectively GST-tagged Tnks-2 (873-1166 aa, prepared in-house) in assay buffer (50 mM HEPES, 4 mM Mg-chloride, 0.05% Pluronic F-68, 2 mM DTT, pH 7.7) overnight at 4° C. The plates are washed 3 times with PBS-Tween-20. The wells are blocked by incubation at room temperature for 20 minutes with 50 μl blocking buffer (PBS, 0.05% Tween-20, 0.5% BSA). Afterwards the plates are washed 3 times with PBS-Tween-20. The enzymatic reaction is performed in 50 μl reaction solution (50 mM HEPES, 4 mM Mg-chloride, 0.05% Pluronic F-68, 1.4 mM DTT, 0.5% DMSO, pH 7.7) with10 μM bio-NAD (Biolog, Life science Inst., Bremen, Germany) as co-substrate in the absence or presence of the test compound (10 dilution concentrations) for 1 hour at 30° C. The reaction is stopped by 3 times washing with PBS-Tween-20. For the detection 50 μl of 20 ng/μl Streptavidin, HRP conjugate (MoBiTec, Göttingen, Germany) in PBS/0.05% Tween-20/0.01% BSA are added and the plates are incubated for 30 minutes at room temperature. After three times washing with PBS-Tween-20 50 μl of SuperSignal ELISA Femto Maximum sensitivity substrate solution (ThermoFisherScientific (Pierce), Bonn, Germany) are added. Following a 1 minute incubation at room temperature luminescence signals are measured with an Envision multimode reader (Perkin Elmer LAS Germany GmbH) at 700 nm. The full value used is the inhibitor-free reaction. The pharmacological zero value used is XAV-939 (Tocris) in a final concentration of 5 μM. The inhibitory values (IC50) are determined using either the program Symyx Assay Explorer® or Condosseo® from GeneData.

The record followed here is patent publication US9376433B2, “(AZA-)isoquinolinone derivatives” (MERCK PATENT GMBH, priority 2012, dated 2016).

T1 sequence (P09874 whole entry): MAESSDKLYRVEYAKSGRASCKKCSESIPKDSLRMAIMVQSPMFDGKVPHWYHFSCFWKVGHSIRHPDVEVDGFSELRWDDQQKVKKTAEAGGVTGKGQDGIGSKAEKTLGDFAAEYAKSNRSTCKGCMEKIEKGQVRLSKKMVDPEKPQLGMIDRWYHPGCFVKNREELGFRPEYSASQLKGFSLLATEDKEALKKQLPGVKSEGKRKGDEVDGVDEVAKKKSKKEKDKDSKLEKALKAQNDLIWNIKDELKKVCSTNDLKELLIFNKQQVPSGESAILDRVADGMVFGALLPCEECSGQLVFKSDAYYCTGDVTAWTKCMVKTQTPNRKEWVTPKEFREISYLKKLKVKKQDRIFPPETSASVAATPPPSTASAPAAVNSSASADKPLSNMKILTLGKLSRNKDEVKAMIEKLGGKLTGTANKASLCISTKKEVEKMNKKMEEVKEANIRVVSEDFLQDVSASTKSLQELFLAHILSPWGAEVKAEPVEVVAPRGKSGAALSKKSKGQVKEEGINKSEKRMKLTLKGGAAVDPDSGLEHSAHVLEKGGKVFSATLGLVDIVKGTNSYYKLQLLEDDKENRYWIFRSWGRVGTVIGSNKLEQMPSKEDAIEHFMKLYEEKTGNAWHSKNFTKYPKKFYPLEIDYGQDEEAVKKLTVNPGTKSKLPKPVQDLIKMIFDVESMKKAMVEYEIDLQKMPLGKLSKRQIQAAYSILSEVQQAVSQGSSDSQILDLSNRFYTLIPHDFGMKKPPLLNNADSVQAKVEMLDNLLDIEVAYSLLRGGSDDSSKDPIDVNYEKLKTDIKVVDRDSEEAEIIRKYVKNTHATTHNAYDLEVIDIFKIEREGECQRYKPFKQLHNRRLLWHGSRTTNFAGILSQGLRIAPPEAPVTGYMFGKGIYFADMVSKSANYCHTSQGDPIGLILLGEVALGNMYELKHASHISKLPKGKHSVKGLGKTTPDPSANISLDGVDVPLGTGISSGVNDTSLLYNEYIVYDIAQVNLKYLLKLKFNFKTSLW
T2 sequence (O95271 1023-1327): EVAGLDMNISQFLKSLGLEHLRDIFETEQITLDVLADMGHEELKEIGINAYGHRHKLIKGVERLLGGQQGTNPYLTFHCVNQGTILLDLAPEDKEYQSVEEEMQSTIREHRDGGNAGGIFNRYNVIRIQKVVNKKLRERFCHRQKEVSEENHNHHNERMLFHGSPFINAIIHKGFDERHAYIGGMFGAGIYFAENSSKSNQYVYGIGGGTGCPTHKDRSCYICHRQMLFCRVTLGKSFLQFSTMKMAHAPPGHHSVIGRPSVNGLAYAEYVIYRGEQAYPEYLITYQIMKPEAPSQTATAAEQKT

`CC(C)(O)c1ccc(-c2cc3c(F)cc(F)cc3c(=O)[nH]2)cc1` [Compound A33, 5,7-difluoro-3-[4-(1-hydroxy-1-methyl-ethyl)-phenyl]-2H-isoquinolin-1-one]: the IC50 on PARP-1 and against TNKS1 was less than 300 nM each time.

In the case of `CC(C)(O)c1ccc(-c2cc3ccccc3c(=O)[nH]2)cc1` [Compound A3, 3-[4-(1-hydroxy-1-methyl-ethyl)-phenyl]-2H-isoquinolin-1-one], the IC50 is 300 to 3000 nM at PARP-1 and less than 300 nM against TNKS1.

Consider `CC(C)(O)c1ccc(-c2cc3c(F)cccc3c(=O)[nH]2)cc1` [Compound A28, 5-fluoro-3-[4-(1-hydroxy-1-methyl-ethyl)phenyl]-2H-isoquinolin-1-one], for which the IC50 was 300 to 3000 nM on PARP-1 and less than 300 nM at TNKS1.

With `CC(C)(O)c1ccc(-c2cc3cnccc3c(=O)[nH]2)cc1` [Compound A23, 3-[4-(1-hydroxy-1-methyl-ethyl)phenyl]-2H-2,6-naphthyridin-1-one], the IC50 on PARP-1 was 3000 to 50000 nM; at TNKS1, less than 300 nM.

As to `Cn1cc(-c2ccc(-c3cc4ccncc4c(=O)[nH]3)cc2)cn1` [Compound A14, 3-[4-(1-Methyl-1H-pyrazol-4-yl)-phenyl]-2H-[2,7]naphthyridin-1-one], the results for the IC50 on PARP-1 and against TNKS1 were 3000 to 50000 nM and less than 300 nM, respectively.

Take `Cn1cc(-c2ccc(-c3cc4ccc(F)cc4c(=O)[nH]3)cc2)cn1` [Compound A18, 7-fluoro-3-[4-(1-methyl-1H-pyrazol-4-yl)-phenyl]-2H-isoquinolin-1-one]: the figures for the IC50 at PARP-1 and on TNKS1 were 300 to 3000 nM and less than 300 nM, respectively.

As for `CC(C)(N)c1ccc(-c2cc3ccc(F)cc3c(=O)[nH]2)cc1` [Compound A20, 3-[4-(1-amino-1-methyl-ethyl)phenyl]-7-fluoro-2H-isoquinolin-1-one], the IC50 on PARP-1 and against TNKS1 was less than 300 nM throughout.

In the case of `Cc1ccc(-c2cc3ccc(F)cc3c(=O)[nH]2)cc1` [Compound A9, 7-fluoro-3-p-tolyl-2H-isoquinolin-1-one], the IC50 at PARP-1 and on TNKS1 was less than 300 nM throughout.

In the case of `CC(C)(O)c1ccc(-c2cc3ccc(F)cc3c(=O)[nH]2)cc1` [Compound A6, 7-fluoro-3-[4-(1-hydroxy-1-methyl-ethyl)-phenyl]-2H-isoquinolin-1-one], the IC50 at PARP-1 is 300 to 3000 nM; against TNKS1, less than 300 nM.

In the case of `COC(C)(C)c1ccc(-c2cc3ccccc3c(=O)[nH]2)cc1` [Compound A15, 3-[4-(1-methoxy-1-methyl-ethyl)-phenyl]-2H-isoquinolin-1-one], the results for the IC50 at PARP-1 and at TNKS1 were 300 to 3000 nM and less than 300 nM, respectively.

In the case of `Cc1ccc(-c2cc3c(F)cccc3c(=O)[nH]2)cc1` [Compound A12, 5-fluoro-3-p-tolyl-2H-isoquinolin-1-one], the 50% inhibitory concentration (IC50) is 300 to 3000 nM on PARP-1 and less than 300 nM at TNKS1.

With `C=C(C)c1ccc(-c2cc3ccc(F)cc3c(=O)[nH]2)cc1` [Compound A17, 7-fluoro-3-(4-isopropenyl-phenyl)-2H-isoquinolin-1-one], the IC50 was 300 to 3000 nM on PARP-1 and less than 300 nM at TNKS1.

Consider `Cc1ccc(-c2cc3cccc(F)c3c(=O)[nH]2)cc1` [Compound A11, 8-fluoro-3-p-tolyl-2H-isoquinolin-1-one], for which the IC50 is 300 to 3000 nM on PARP-1 and less than 300 nM on TNKS1.

For the compound `CC(C)(O)c1ccc(-c2cc3cc(F)ccc3c(=O)[nH]2)cc1` [Compound A5, 6-fluoro-3-[4-(1-hydroxy-1-methyl-ethyl)-phenyl]-2H-isoquinolin-1-one], the IC50 on PARP-1 is 300 to 3000 nM; on TNKS1, less than 300 nM.

On to `Cc1ccc(-c2cc3cc(F)ccc3c(=O)[nH]2)cc1` [Compound A10, 6-fluoro-3-p-tolyl-2H-isoquinolin-1-one], for which the IC50 on PARP-1 is 3000 to 50000 nM; on TNKS1, less than 300 nM.

Consider `CC(C)(OCCO)c1ccc(-c2cc3ccc(F)cc3c(=O)[nH]2)cc1` [Compound A16, 7-fluoro-3-{4-[1-(2-hydroxy-ethoxy)-1-methyl-ethyl]-phenyl}-2H-isoquinolin-1-one], for which the figures for the IC50 at PARP-1 and on TNKS1 were 300 to 3000 nM and less than 300 nM, respectively.

For the compound `CC(C)(O)c1ccc(-c2cc3ccncc3c(=O)[nH]2)cc1` [Compound A24, 3-[4-(1-hydroxy-1-methyl-ethyl)phenyl]-2H-2,7-naphthyridin-1-one], the values for the concentration for half-maximal inhibition (IC50) on PARP-1 and on TNKS1 were 3000 to 50000 nM and less than 300 nM, respectively.

Take `Cc1ccc(-c2cc3c(C)cccc3c(=O)[nH]2)cc1` [Compound A29, 5-methyl-3-(p-tolyl)-2H-isoquinolin-1-one]: the half-inhibitory concentration (IC50) at PARP-1 and on TNKS1 was less than 300 nM each time.

`CC(C)(O)c1ccc(-c2cc3cccc(F)c3c(=O)[nH]2)cc1` [Compound A27, 8-fluoro-3-[4-(1-hydroxy-1-methyl-ethyl)phenyl]-2H-isoquinolin-1-one]: the IC50 at PARP-1 was 300 to 3000 nM; against TNKS1 it was less than 300 nM.

By IC50 is commonly meant the concentration needed to halve the response being measured.
